Source: ChEMBL document CHEMBL4028849 (J Med Chem, 2017)

Assays:
[1] = n-Octanol-water partition co-efficient, log P of the compound at 1 mg/ml by HPLC analysis; assay type: physicochemical
[2] = Terminal half life in Sprague-Dawley rat at 1 mg/kg, iv; assay type: ADME, organism-based; conditions: in vivo, read-out: beta t1/2 (converted)

| Structure (SMILES) | logP [1] | half-life [2] |
| --- | --- | --- |
| CCNc1nc(N2CC(=O)Nc3cc(OC)ccc32)c2ccccc2n1 | 2.56 |  |
| COc1ccc2c(c1)NC(=O)CN2c1nc(NC2CCCC2)nc2ccccc12 | 2.33 |  |
| CNc1nc(N2CC(=O)Nc3cc(OC)ccc32)c2ccccc2n1 | 2.77 |  |
| COc1ccc2c(c1)NC(=O)CN2c1nc(Cl)nc2ccccc12 | 2.94 |  |
| COc1ccc2c(c1)NC(=O)CN2c1nc(C)nc2ccccc12 |  | 52 h |

Continued, in another order:

| logP [1] | Structure (SMILES) | half-life [2] |
| --- | --- | --- |
| 2.7 | COc1ccc2c(c1)NC(=O)CN2c1nc(COC(C)=O)nc2ccccc12 |  |
| 3.91 | CCCCNc1nc(N2CC(=O)Nc3cc(OC)ccc32)c2ccccc2n1 |  |
| 2.6 | COc1ccc2c(c1)NC(=O)CN2c1nc(NCCCO)nc2ccccc12 |  |
| 2.14 | COc1ccc2c(c1)NC(=O)CN2c1nc(N2CC(F)(F)C2)nc2ccccc12 |  |
| 2.14 | COc1ccc2c(c1)NC(=O)CN2c1nc(CO)nc2ccccc12 |  |
| 2.26 | COc1ccc2c(c1)NC(=O)CN2c1nc(NC2CC2)nc2ccccc12 |  |
| 2.48 | COc1ccc2c(c1)NC(=O)CN2c1nc(N2CCC(F)(F)C2)nc2ccccc12 |  |
